Source: ChEMBL document CHEMBL5532705, “Bioactivity-Based Molecular Networking-Guided Isolation of Epicolidines A-C from the Endophytic Fungus Epicoccum sp. 1-042” (2024)
Numbered stars: 1 amine (or outer) side, 2 acyl side, 3 side chain; on linkers, the order of the positions; unused ones are H or OH. Bridge positions count the residues as written; N and C are the ends. Square brackets hold non-standard residues; d marks the D form. Peptide text beside a SMILES is read from it. * marks the point of attachment. X1 = O=C1C[C@@H](C(=O)[*:2])N([*:1])C[C@H]1CS[C@@H]1CN2CCC1CC2; NMePhe(4-NMe2) = CN[C@@H](Cc1ccc(N(C)C)cc1)C(=O)O; Picolinoyl(3-OH) = O=C(c1ncccc1O)*; Phg = N[C@H](C(=O)O)c1ccccc1; dAbu = CC[C@@H](N)C(=O)O

How the values were obtained:
Format in all cases: functional
[1] = test system: Candida albicans; assay: Antimicrobial activity against Candida albicans ATCC 10231 assessed as inhibition of microbial growth incubated for 16 hrs by broth microdilution method
[2] = test system: Candida tropicalis; assay: Antimicrobial activity against Candida tropicalis ATCC 1369 assessed as inhibition of microbial growth incubated for 16 hrs by broth microdilution method
[3] = test system: Klebsiella pneumoniae; assay: Antimicrobial activity against Klebsiella pneumoniae ATCC 700603 assessed as inhibition of microbial growth incubated for 16 hrs by broth microdilution method
[4] = test system: Escherichia coli; assay: Antimicrobial activity against Escherichia coli ATCC 25922 assessed as inhibition of microbial growth incubated for 16 hrs by broth microdilution method
[5] = test system: Pseudomonas aeruginosa; assay: Antimicrobial activity against Pseudomonas aeruginosa ATCC 27853 assessed as inhibition of microbial growth incubated for 16 hrs by broth microdilution method
[6] = test system: Enterococcus faecium; assay: Antimicrobial activity against Enterococcus faecium ATCC 35667 assessed as inhibition of microbial growth incubated for 16 hrs by broth microdilution method
[7] = test system: Staphylococcus aureus; assay: Antimicrobial activity against Staphylococcus aureus ATCC 29213 assessed as inhibition of microbial growth incubated for 16 hrs by broth microdilution method
[8] = test system: Enterococcus faecium; assay: Antimicrobial activity against vancomycin resistant Enterococcus faecium 310682 assessed as inhibition of microbial growth incubated for 16 hrs by broth microdilution method
[9] = test system: Staphylococcus aureus; assay: Antimicrobial activity against methicillin resistant Staphylococcus aureus 181404 assessed as inhibition of microbial growth incubated for 16 hrs by broth microdilution method
[10] = test system: Enterococcus faecium; assay: Antibacterial activity against vancomycin resistant Enterococcus faecium 310682 infected in Galleria mellonella last-instar larvae assessed as survival at 0.20 mg/kg measured after 1 day (reference value: 30%); details: Enterococcus faecium, 310682, 24 h
[11] = test system: Enterococcus faecium; assay: Antibacterial activity against vancomycin resistant Enterococcus faecium 310682 infected in Galleria mellonella last-instar larvae assessed as survival at 1 mg/kg measured after 1 day (reference value: 30%); details: Enterococcus faecium, 310682, 24 h
[12] = test system: Enterococcus faecium; assay: Antibacterial activity against vancomycin resistant Enterococcus faecium 310682 infected in Galleria mellonella last-instar larvae assessed as survival at 10 mg/kg measured after 1 day (reference value: 30%); details: Enterococcus faecium, 310682, 24 h
[13] = test system: Enterococcus faecium; assay: Antimicrobial activity against vancomycin resistant Enterococcus faecium 310682 assessed as inhibition of microbial growth incubated for 16 hrs in presence of quinupristin by broth microdilution method
[14] = test system: Enterococcus faecium; assay: Antimicrobial activity against vancomycin resistant Enterococcus faecium 310682 assessed as inhibition of microbial growth incubated for 16 hrs in presence of dalfopristin by broth microdilution method

| SMILES | MIC [1] [mg/L] | MIC [2] [mg/L] | MIC [3] [mg/L] | MIC [4] [mg/L] | MIC [5] [mg/L] | MIC [6] [mg/L] | MIC [7] [mg/L] | MIC [8] [mg/L] | MIC [9] [mg/L] | survival at 0.2 mg/kg [10] [%] | survival at 1 mg/kg [11] [%] | survival at 10 mg/kg [12] [%] | MIC [13] [mg/L] | MIC [14] [mg/L] |
| --- | --- | --- | --- | --- | --- | --- | --- | --- | --- | --- | --- | --- | --- | --- |
| CC[C@H](C)[C@H]1C(=O)/C(=C(/O)[C@H]2[C@@H]3[C@H](C)C[C@H](C)C[C@@H]3C=C[C@@H]2[C@]2(C)O[C@H]2C)C(=O)N1C | 8 | > 128 | > 128 | > 128 | > 128 | 1 | 0.25 | 0.25 | 0.5 | 0 | 40 | 100 | – | – |
| CN[C@H](CC(C)C)C(=O)N[C@H]1C(=O)N[C@@H](CC(N)=O)C(=O)N[C@H]2C(=O)N[C@H]3C(=O)N[C@H](C(=O)N[C@H](C(=O)O)c4cc(O)cc(O)c4-c4cc3ccc4O)[C@H](O)c3ccc(c(Cl)c3)Oc3cc2cc(c3O[C@@H]2O[C@H](CO)[C@@H](O)[C@H](O)[C@H]2O[C@H]2C[C@](C)(N)[C@H](O)[C@H](C)O2)Oc2ccc(cc2Cl)[C@H]1O [VANCOMYCIN] | – | – | – | – | – | – | – | > 16 | 0.25 | – | – | – | – | – |
| CCN(CC)CCS(=O)(=O)[C@@H]1CCN2C(=O)c3coc(n3)CC(=O)C[C@H](O)/C=C(C)/C=C/CNC(=O)/C=C/[C@@H](C)[C@@H](C(C)C)OC(=O)[C@@H]12 [DALFOPRISTIN] | – | – | – | – | – | – | – | – | – | – | – | – | 0.5 | – |
| C=C([C@H](C)O)[C@H]1C=C[C@H]2C[C@@H](C)C[C@@H](C)[C@H]2[C@@H]1/C(O)=C1\C(=O)[C@H]([C@@H](C)CC)N(C)C1=O | 128 | > 128 | > 128 | > 128 | > 128 | 8 | 2 | 2 | 2 | – | – | – | – | – |
| CC[C@H](C)[C@@H]1N(C)C(=O)[C@H]2C(=O)[C@H]3[C@@H]4[C@H](C)C[C@H](C)C[C@@H]4C=C[C@@H]3[C@@]3(C)O[C@]21O[C@H]3C | > 128 | > 128 | > 128 | > 128 | > 128 | 64 | 64 | 16 | 16 | – | – | – | – | – |
| CC[C@H]1NC(=O)[C@@H](NC(=O)c2ncccc2O)[C@@H](C)OC(=O)[C@H](c2ccccc2)NC(=O)[C@@H]2CC(=O)[C@H](CS[C@@H]3CN4CCC3CC4)CN2C(=O)[C@H](Cc2ccc(N(C)C)cc2)N(C)C(=O)[C@@H]2CCCN2C1=O [QUINUPRISTIN] ({Picolinoyl(3-OH)}-T[dAbu]P[NMePhe(4-NMe2)][X1][Phg]; ester 1-C) | – | – | – | – | – | – | – | – | – | – | – | – | – | 0.5 |
| OC(Cn1cncn1)(Cn1cncn1)c1ccc(F)cc1F [FLUCONAZOLE] | 8 | 2 | – | – | – | – | – | – | – | – | – | – | – | – |
| C[C@@H](O)[C@H]1C(=O)N2C(C(=O)O)=C(S[C@@H]3CN[C@H](C(=O)N(C)C)C3)[C@H](C)[C@H]12 [MEROPENEM] | – | – | 2 | 0.5 | 16 | > 16 | 2 | > 16 | > 16 | – | – | – | – | – |
